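Interpolation was linear, between the two tested concentrations surrounding the appropriate level; five concentrations were tested over 48 hours in 96-well plates. TGI is the concentration that stops growth completely.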
What was measured:
Assay in all cases: DTP human tumour cell line panel, 48 h
MALME-3M melanoma = tested on: MALME-3M melanoma
MDA-MB-435 = tested on: MDA-MB-435
COLO 205 colon = tested on: COLO 205 colon
PC-3 prostate = tested on: PC-3 prostate
CAKI-1 renal = tested on: CAKI-1 renal
A498 renal = tested on: A498 renal
LOX IMVI melanoma = tested on: LOX IMVI melanoma
OVCAR-3 ovarian = tested on: OVCAR-3 ovarian
SN12C renal = tested on: SN12C renal
RXF 393 renal = tested on: RXF 393 renal
DU-145 prostate = tested on: DU-145 prostate
OVCAR-8 ovarian = tested on: OVCAR-8 ovarian
NCI-H460 lung = tested on: NCI-H460 lung
HCC-2998 colon = tested on: HCC-2998 colon
MOLT-4 leukemia = tested on: MOLT-4 leukemia
SF-295 CNS = tested on: SF-295 CNS
SK-MEL-5 melanoma = tested on: SK-MEL-5 melanoma
UO-31 renal = tested on: UO-31 renal
HOP-92 NSCLC = tested on: HOP-92 NSCLC
SNB-19 CNS = tested on: SNB-19 CNS
IGROV1 ovarian = tested on: IGROV1 ovarian
SR leukemia = tested on: SR leukemia
HOP-62 NSCLC = tested on: HOP-62 NSCLC
UACC-62 melanoma = tested on: UACC-62 melanoma
U251 CNS = tested on: U251 CNS
SW-620 colon = tested on: SW-620 colon
NCI-H23 lung = tested on: NCI-H23 lung
HCT-15 colon = tested on: HCT-15 colon
K-562 leukemia = tested on: K-562 leukemia
SK-MEL-28 melanoma = tested on: SK-MEL-28 melanoma
EKVX NSCLC = tested on: EKVX NSCLC
RPMI-8226 leukemia = tested on: RPMI-8226 leukemia
ACHN renal = tested on: ACHN renal
UACC-257 melanoma = tested on: UACC-257 melanoma
SF-268 CNS = tested on: SF-268 CNS
M14 melanoma = tested on: M14 melanoma
HCT-116 colon = tested on: HCT-116 colon
SK-MEL-2 melanoma = tested on: SK-MEL-2 melanoma
HL-60(TB) leukemia = tested on: HL-60(TB) leukemia
A549 NSCLC = tested on: A549 NSCLC
TK-10 renal = tested on: TK-10 renal
MCF7 breast = tested on: MCF7 breast
BT-549 breast = tested on: BT-549 breast
HT29 colon = tested on: HT29 colon
MDA-N = tested on: MDA-N
SK-OV-3 ovarian = tested on: SK-OV-3 ovarian
786-0 renal = tested on: 786-0 renal
NCI/ADR-RES ovarian = tested on: NCI/ADR-RES ovarian
NCI-H226 lung = tested on: NCI-H226 lung
OVCAR-5 ovarian = tested on: OVCAR-5 ovarian
HS 578T breast = tested on: HS 578T breast
MDA-MB-231 breast = tested on: MDA-MB-231 breast
SF-539 CNS = tested on: SF-539 CNS
CCRF-CEM leukemia = tested on: CCRF-CEM leukemia
OVCAR-4 ovarian = tested on: OVCAR-4 ovarian
T-47D breast = tested on: T-47D breast
NCI-H522 lung = tested on: NCI-H522 lung
KM12 colon = tested on: KM12 colon

Measured: TGI

COc1ccc(N2C(=O)CC(c3c[nH]c4ccccc34)C2=O)cc1 (configuration not stated)
not listed: OVCAR-4 ovarian | T-47D breast | NCI-H522 lung | KM12 colon
> 100 µM: all other assays above

CC(C)(C)OC(=O)N1C(=O)OC[C@@H]2C=C[C@@H]21
not listed: HCC-2998 colon | UO-31 renal | SR leukemia | K-562 leukemia | NCI-H226 lung
> 100 µM: all other assays above
